Experimental data published in patent US11046658B2, “Aminopyrazine derivatives as PI3K-γ inhibitors” (Incyte Corporation, priority 2018, dated 2021).
Structures can show the parent of a compound that is named as a salt.

Tested on: Phosphorylated Ribosomal Protein S6 (RPS6) in THP-1 cells
Test: THP-1 RPS6 ELISA Assay
Type: cell-based, Human
Settings: Homo sapiens, THP-1, read-out: PI3Kγ_THP1_RPS6_ELISA IC50 (nM)
Method: To measure the Phosphorylated Ribosomal Protein S6 (RPS6) in cell lysates, THP-1 cells (Human Acute Monocytic Leukemia) are purchased from ATCC (Manassas, Va.) and maintained in RPMI with 10% FBS (Gibco/Life Technologies, Carlsbad, Calif.). For the assay, THP-1 cells are serum starved overnight in RPMI, then plated in RPMI (2×10^5 cells/well in 90 μL) into 96-well flat-bottom tissue culture treated plates (Corning, Corning, N.Y.), in the presence or absence of a concentration range of test compounds. Covered plates are incubated for 2 hours at 37° C., 5% CO2 then treated with or without 10 nM MCP-1(MYBioSource, San Diego, Calif.) for 15 minutes at 37° C., 5% CO2. Plates are centrifuged at 1600 RPM and supernatants are removed. Cells are lysed in Lysis Buffer (Cell Signaling, Danvers, Mass.) with Protease Inhibitor (Calbiochem/EMD, Germany), PMSF (Sigma, St Louis Mo.), HALTS (Thermo Fisher, Rockford, Ill.) for 30 min on wet ice. Cell lysates are frozen at −80 OC before testing. The lysates are tested in the Human/Mouse/Rat Phospho-RPS6 ELISA (R&D Systems, Inc. Minn, Minn.). The plate is measured using a microplate reader (SpectraMax M5—Molecular Devices, LLC Sunnyvale, Calif.) set to 450 nm with a wavelength correction of 540. IC50 determination is performed by fitting the curve of inhibitor percent inhibition versus the log of the inhibitor concentration using the GraphPad Prism 5.0 software.

Row | Compound | IC50 [nM]
1 | Cc1ccc(C(O)(C(N)=O)C(F)(F)F)cc1-c1cnc(N)c(N2CCN(C(=O)c3ccco3)CC2)n1 (stereo not drawn) [Example 127, 2-(3-(5-amino-6-(4-(furan-2-carbonyl)piperazin-1-yl)pyrazin-2-yl)-4-methylphenyl)-3,3,3-trifluoro-2-hydroxypropanamide trifluoroacetate] | < 100
2 | Cc1ccc(C(O)(C(N)=O)C(F)(F)F)cc1-c1cnc(N)c(N2CCN(CCC#N)CC2)n1 (stereo not drawn) [Example 125, 2-(3-(5-amino-6-(4-(2-cyanoethyl)piperazin-1-yl)pyrazin-2-yl)-4-methylphenyl)-3,3,3-trifluoro-2-hydroxypropanamide trifluoroacetate] | < 500

Same assay, conditions: Homo sapiens; Table A1; THP-1 cells, 10 nM MCP-1; read-out: PI3Kγ_THP1_RPS6_ELISA IC50

Row | IC50 [nM] | Compound
3 | < 100 | Cc1ccc(C(O)(C(N)=O)C(F)(F)F)cc1-c1cnc(N)c(C(=O)NC(C)C)n1 (stereo not drawn) [Example 5, 3-Amino-6-(5-(3-amino-1,1,1-trifluoro-2-hydroxy-3-oxopropan-2-yl)-2-methylphenyl)-N-isopropylpyrazine-2-carboxamide trifluoroacetate]
4 | < 100 | Cc1ccc(C(O)(C(N)=O)C(F)(F)F)cc1-c1cnc(N)c(C(=O)N[C@@H](C)CC#N)n1 (stereo partly drawn) [Example 8, 3-amino-6-(5-(3-amino-1,1,1-trifluoro-2-hydroxy-3-oxopropan-2-yl)-2-methylphenyl)-N-((S)-1-cyanopropan-2-yl)pyrazine-2-carboxamide trifluoroacetate]
5 | < 100 | Cc1ccc(C(O)(C(N)=O)C(F)(F)F)cc1-c1cnc(N)c(C(=O)NC2CCC(F)(F)CC2)n1 (stereo not drawn) [Example 6, 3-amino-6-(5-(3-amino-1,1,1-trifluoro-2-hydroxy-3-oxopropan-2-yl)-2-methylphenyl)-N-(4,4-difluorocyclohexyl)pyrazine-2-carboxamide trifluoroacetate]
6 | < 100 | Cc1ccc(C(O)(C(N)=O)C(F)(F)F)cc1-c1cnc(N)c(C(=O)NCCC#N)n1 (stereo not drawn) [Example 14, 3-amino-6-(5-(3-amino-1,1,1-trifluoro-2-hydroxy-3-oxopropan-2-yl)-2-methylphenyl)-N-(2-cyanoethyl)pyrazine-2-carboxamide trifluoroacetate]
7 | < 100 | Cc1ccc(C(O)(C(N)=O)C(F)(F)F)cc1-c1cnc(N)c(C(=O)NCC2(C#N)CC2)n1 (stereo not drawn) [Example 4, 3-amino-6-(5-(3-amino-1,1,1-trifluoro-2-hydroxy-3-oxopropan-2-yl)-2-methylphenyl)-N-((1-cyanocyclopropyl)methyl)pyrazine-2-carboxamide trifluoroacetate]
8 | < 100 | Cc1ccc(C(O)(C(N)=O)C(F)F)cc1-c1cnc(N)c(C(=O)NCCC2CCOC2)n1 (stereo not drawn) [Example 37, 3-amino-6-(5-(1-amino-3,3-difluoro-2-hydroxy-1-oxopropan-2-yl)-2-methylphenyl)-N-(2-(tetrahydrofuran-3-yl)ethyl)pyrazine-2-carboxamide]

Row | Compound | IC50 [nM]
9 | Cc1ccc(C(O)(CNC(=O)CC#N)C(F)(F)F)cc1-c1cnc(N)c(C(=O)NC(C)C)n1 (stereo not drawn) [Example 42, 3-Amino-6-(5-(3-(2-cyanoacetamido)-1,1,1-trifluoro-2-hydroxypropan-2-yl)-2-methylphenyl)-N-isopropylpyrazine-2-carboxamide trifluoroacetate] | < 500

Same assay, conditions: Homo sapiens; Table A2; THP-1 cells, 10 nM MCP-1; read-out: PI3Kγ_THP1_RPS6_ELISA IC50

Row | Compound | IC50 [nM]
10 | COCC#Cc1nc(-c2cc(C(O)(C(N)=O)C(F)(F)F)ccc2C)cnc1N (stereo not drawn) [Example 47, 2-(3-(5-amino-6-(3-methoxyprop-1-ynyl)pyrazin-2-yl)-4-methylphenyl)-3,3,3-trifluoro-2-hydroxypropanamide trifluoroacetate] | < 100
11 | Cc1ccc(C(O)(C(N)=O)C(F)(F)F)cc1-c1cnc(N)c(C#CC(C)C)n1 (stereo not drawn) [Example 49, 2-(3-(5-amino-6-(3-methylbut-1-ynyl)pyrazin-2-yl)-4-methylphenyl)-3,3,3-trifluoro-2-hydroxypropanamide] | < 500
12 | Cc1ccc(C(O)(C(N)=O)C(F)(F)F)cc1-c1cnc(N)c(C#Cc2ccccn2)n1 (stereo not drawn) [Example 55, 2-(3-(5-amino-6-(pyridin-2-ylethynyl)pyrazin-2-yl)-4-methylphenyl)-3,3,3-trifluoro-2-hydroxypropanamide] | < 100
13 | Cc1ccc(C(O)(C(N)=O)C(F)(F)F)cc1-c1cnc(N)c(C#CC(C)(C)O)n1 (stereo not drawn) [Example 50, 2-(3-(5-amino-6-(3-hydroxy-3-methylbut-1-ynyl)pyrazin-2-yl)-4-methylphenyl)-3,3,3-trifluoro-2-hydroxypropanamide] | < 100
14 | Cc1ccc(C(O)(C(N)=O)C(F)(F)F)cc1-c1cnc(N)c(C#Cc2ccc(CC#N)cc2)n1 (stereo not drawn) [Example 59, 2-(3-(5-amino-6-((4-(cyanomethyl)phenyl)ethynyl)pyrazin-2-yl)-4-methylphenyl)-3,3,3-trifluoro-2-hydroxypropanamide] | < 100
15 | Cc1ccc(C(O)(C(N)=O)C(F)(F)F)cc1-c1cnc(N)c(C#CC2CC2)n1 (stereo not drawn) [Example 48, 2-(3-(5-amino-6-(cyclopropylethynyl)pyrazin-2-yl)-4-methylphenyl)-3,3,3-trifluoro-2-hydroxypropanamide] | > 1000

Other lines, results leading:

Row | IC50 [nM] | Compound
16 | < 100 | COc1cc(C#Cc2nc(-c3cc(C(O)(C(N)=O)C(F)(F)F)ccc3C)cnc2N)cc(OC)c1 (stereo not drawn) [Example 60, 2-(3-(5-amino-6-((3,5-dimethoxyphenyl)ethynyl)pyrazin-2-yl)-4-methylphenyl)-3,3,3-trifluoro-2-hydroxypropanamide]
17 | < 100 | Cc1ccc(C(O)(C(N)=O)C(F)(F)F)cc1-c1cnc(N)c(C#CC(C)(O)C(C)C)n1 (stereo not drawn) [Example 62, 2-(3-(5-amino-6-(3-hydroxy-3,4-dimethylpent-1-ynyl)pyrazin-2-yl)-4-methylphenyl)-3,3,3-trifluoro-2-hydroxypropanamide]
18 | < 100 | Cc1ccc(C(O)(C(N)=O)C(F)(F)F)cc1-c1cnc(N)c(C#CC2(C)CCOCC2)n1 (stereo not drawn) [Example 64, 2-(3-(5-amino-6-((4-methyltetrahydro-2H-pyran-4-yl)ethynyl)pyrazin-2-yl)-4-methylphenyl)-3,3,3-trifluoro-2-hydroxypropanamide]

Same assay, conditions: Homo sapiens; Table A3; THP-1 cells, 10 nM MCP-1; read-out: PI3Kγ_THP1_RPS6_ELISA IC50

Row | Compound | IC50 [nM]
19 | Cc1ccc(C(O)(C(N)=O)C(F)(F)F)cc1-c1cnc(N)c(-c2ccc(CO)cc2)n1 (stereo not drawn) [Example 88, 2-(3-(5-amino-6-(4-(hydroxymethyl)phenyl)pyrazin-2-yl)-4-methylphenyl)-3,3,3-trifluoro-2-hydroxypropanamide trifluoroacetate] | < 500
20 | Cc1ccc(C(O)(C(N)=O)C(F)(F)F)cc1-c1cnc(N)c(-c2ccc(CC#N)cc2)n1 (stereo not drawn) [Example 87, 2-(3-(5-amino-6-(4-(cyanomethyl)phenyl)pyrazin-2-yl)-4-methylphenyl)-3,3,3-trifluoro-2-hydroxypropanamide trifluoroacetate] | < 500

Second part, the compound after the results:

Row | IC50 [nM] | Compound
21 | < 100 | Cc1ccc(C(O)(C(N)=O)C(F)(F)F)cc1-c1cnc(N)c(-n2cccn2)n1 (stereo not drawn) [Example 93, 2-(3-(5-Amino-6-(1H-pyrazol-1-yl)pyrazin-2-yl)-4-methylphenyl)-3,3,3-trifluoro-2-hydroxypropanamide]
22 | < 100 | CC(=O)NCC(O)(c1ccc(C)c(-c2cnc(N)c(-c3cn[nH]c3)n2)c1)C(F)(F)F (stereo not drawn) [Example 105, N-(2-(3-(5-amino-6-(1H-pyrazol-4-yl)pyrazin-2-yl)-4-methylphenyl)-3,3,3-trifluoro-2-hydroxypropyl)acetamide trifluoroacetate]
23 | < 100 | Cc1ccc(C(O)(C(N)=O)C(F)F)cc1-c1cnc(N)c(-c2cnn(C)n2)n1 (stereo not drawn) [Example 101, 2-(3-(5-amino-6-(2-methyl-2H-1,2,3-triazol-4-yl)pyrazin-2-yl)-4-methylphenyl)-3,3-difluoro-2-hydroxypropanamide]
24 | < 100 | Cc1ccc(C(O)(C(N)=O)C(F)(F)F)cc1-c1cnc(N)c(C(=O)Nc2ccnn2C)n1 (stereo not drawn) [Example 106, 3-amino-6-(5-(3-amino-1,1,1-trifluoro-2-hydroxy-3-oxopropan-2-yl)-2-methylphenyl)-N-(1-methyl-1H-pyrazol-5-yl)pyrazine-2-carboxamide trifluoroacetate]
25 | < 100 | Cc1ccc(C(O)(C(N)=O)C(F)(F)F)cc1-c1cnc(N)c(-c2ccnn2C)n1 (stereo not drawn) [Example 69, 2-(3-(5-Amino-6-(1-methyl-1H-pyrazol-5-yl)pyrazin-2-yl)-4-methylphenyl)-3,3,3-trifluoro-2-hydroxypropanamide trifluoroacetate]
26 | < 100 | Cc1ncc(-c2nc(-c3cc(C(O)(C(N)=O)C(F)F)ccc3C)cnc2N)o1 (stereo not drawn) [Example 100, 2-(3-(5-amino-6-(2-methyloxazol-5-yl)pyrazin-2-yl)-4-methylphenyl)-3,3-difluoro-2-hydroxypropanamide]
27 | < 100 | Cc1ccc(C(O)(C(N)=O)C(F)F)cc1-c1cnc(N)c(-c2ccnn2C)n1 (stereo not drawn) [Example 98, 2-(3-(5-Amino-6-(1-methyl-1H-pyrazol-5-yl)pyrazin-2-yl)-4-methylphenyl)-3,3-difluoro-2-hydroxypropanamide]
